One assay has as its target HIS-TGFβR1 T204D (Homo sapiens (Human), UniProt P36897, T204D). The experiment in a line: HTRF probe-displacement assay, TGFβR1. In kind it is binding. The note with it: GST tagged wild type protein used instead of HIS-tagged protein (starred values). As for the experimental part:
Em: 520 nm/495 nm). […] Compounds were dissolved at 10 mM in dimethylsulfoxide (DMSO) and evaluated at eleven concentrations. IC50 values were derived by non-linear regression analysis.
Chain of HIS-TGFβR1 T204D (P36897 34-503 T204D): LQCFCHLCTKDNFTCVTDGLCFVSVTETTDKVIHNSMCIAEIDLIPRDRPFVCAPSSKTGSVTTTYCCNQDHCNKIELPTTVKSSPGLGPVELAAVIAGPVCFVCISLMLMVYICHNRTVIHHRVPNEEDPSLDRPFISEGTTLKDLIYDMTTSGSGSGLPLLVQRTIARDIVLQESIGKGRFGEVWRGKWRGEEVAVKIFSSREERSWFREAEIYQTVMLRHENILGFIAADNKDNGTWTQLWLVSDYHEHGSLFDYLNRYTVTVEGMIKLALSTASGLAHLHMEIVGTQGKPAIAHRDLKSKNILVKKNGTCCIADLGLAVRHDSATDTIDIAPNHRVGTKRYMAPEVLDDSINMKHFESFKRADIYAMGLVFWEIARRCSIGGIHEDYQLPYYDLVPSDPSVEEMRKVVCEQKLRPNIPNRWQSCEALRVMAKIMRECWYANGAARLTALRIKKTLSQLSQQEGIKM
By IC50 is commonly meant the point on the concentration scale where inhibition reaches its midpoint. Read a low IC50 as greater potency in that assay. For `Cc1ccc(F)c(-c2nc(-n3ccc4cnccc43)c3cccn3n2)n1` [Example 4, 3-fluoro-6-methyl-2-(4-{1H-pyrrolo[3,2-c]pyridin-1-yl}pyrrolo[2,1-f][1,2,4]triazin-2-yl)pyridine], the 50% inhibitory concentration (IC50) came out at 18 nM. This counts as double-digit nanomolar. For the compound `Cc1cccc(-c2nc(Nc3ccnc4ccc(Br)cc34)c3cccn3n2)n1` [Example 12, 6-bromo-N-[2-(6-methylpyridin-2-yl)pyrrolo[2,1-f][1,2,4]triazin-4-yl]quinolin-4-amine], the IC50 came out at 280 nM. For `Cc1cccc(-c2nc(Nc3ccnc4ccc(C(F)(F)F)cc34)c3cccn3n2)n1` [Example 16, N-[2-(6-methylpyridin-2-yl)pyrrolo[2,1-f][1,2,4]triazin-4-yl]-6-(trifluoromethyl)quinolin-4-amine], the IC50 came to 940 nM. This IC50 is about 3.4-fold higher than that of the compound before. For `CS(=O)(=O)Nc1cccc(-c2nc(-n3ccc4cnccc43)c3cccn3n2)n1` [Example 25, N-[6-(4-{1H-pyrrolo[3,2-c]pyridin-1-yl}pyrrolo[2,1-f][1,2,4]triazin-2-yl)pyridin-2-yl]methanesulfonamide], the IC50 was found to be 33 nM.

Staying with this assay, now noted: HIS-TGFβR1 T204D, 1 nM; 1 hour at room temperature.
`FC(F)(F)c1cccc(-c2nc(Nc3ccnc4cccnc34)c3cccn3n2)n1` [Example 2, N-{2-[6-(trifluoromethyl)pyridin-2-yl]pyrrolo[2,1-f][1,2,4]triazin-4-yl}-1,5-naphthyridin-4-amine] returned an IC50 of 20 nM. This lies in the double-digit nanomolar range. Same read-out and setting: the figure for `COc1cccc(-c2nc(Nc3ccc4ncccc4c3)c3cccn3n2)n1` [Example 3, N-(2-(6-methoxypyridin-2-yl)pyrrolo[2,1-f][1,2,4]triazin-4-yl)quinolin-6-amine] is 13000 nM.

`Cc1cccc(-c2nc(-n3ccc4cnccc43)c3cccn3n2)n1` [Example 5, 2-methyl-6-(4-{1H-pyrrolo[3,2-c]pyridin-1-yl}pyrrolo[2,1-f][1,2,4]triazin-2-yl)pyridine] displayed a 50% inhibitory concentration (IC50) of 0.96 nM. As for `Fc1cccc(-c2nc(-n3ccc4cnccc43)c3cccn3n2)n1` [Example 6, 2-fluoro-6-(4-{1H-pyrrolo[3,2-c]pyridin-1-yl}pyrrolo[2,1-f][1,2,4]triazin-2-yl)pyridine], the IC50 amounted to 1.4 nM.

With `Cn1cnc2ccc(Nc3nc(-c4ccccn4)nn4cccc34)cc21` [Example 7, 1-methyl-N-[2-(pyridin-2-yl)pyrrolo[2,1-f][1,2,4]triazin-4-yl]-1H-1,3-benzodiazol-6-amine], the IC50 came to 240 nM. As to `c1ccc(-c2nc(-n3ccc4cnccc43)c3cccn3n2)nc1` [Example 8, 2-(4-{1H-pyrrolo[3,2-c]pyridin-1-yl}pyrrolo[2,1-f][1,2,4]triazin-2-yl)pyridine], the IC50 came to 1.1 nM. Regarding `c1ccc(-c2nc(-n3cnc4cnccc43)c3cccn3n2)nc1` [Example 9, 2-(4-{1H-imidazo[4,5-c]pyridin-1-yl}pyrrolo[2,1-f][1,2,4]triazin-2-yl)pyridine], the IC50 worked out at 5.1 nM. In turn, `c1ccc(-c2nc(-n3ccc4ccncc43)c3cccn3n2)nc1` [Example 10, 2-(4-{1H-pyrrolo[2,3-c]pyridin-1-yl}pyrrolo[2,1-f][1,2,4]triazin-2-yl)pyridine] returned an IC50 of 310 nM.

Regarding `COc1ccc2nccc(Nc3nc(-c4cccc(C)n4)nn4cccc34)c2c1` [Example 11, 6-methoxy-N-[2-(6-methylpyridin-2-yl)pyrrolo[2,1-f][1,2,4]triazin-4-yl]quinolin-4-amine], the IC50 came to 6.4 nM. As for `COc1ccc2c(Nc3nc(-c4cccc(C)n4)nn4cccc34)ccnc2c1` [Example 13, 7-methoxy-N-[2-(6-methylpyridin-2-yl)pyrrolo[2,1-f][1,2,4]triazin-4-yl]quinolin-4-amine], the IC50 worked out at 1.1 nM. Still for that read-out and setting: the figure for `Cc1cccc(-c2nc(Nc3ccnc4ccc(F)cc34)c3cccn3n2)n1` [Example 14, 6-fluoro-N-[2-(6-methylpyridin-2-yl)pyrrolo[2,1-f][1,2,4]triazin-4-yl]quinolin-4-amine] is 6.6 nM; for `Cc1cccc(-c2nc(Nc3ccnc4ccc(Cl)cc34)c3cccn3n2)n1` [Example 15, 6-chloro-N-[2-(6-methylpyridin-2-yl)pyrrolo[2,1-f][1,2,4]triazin-4-yl]quinolin-4-amine] it is 4.7 nM. In the case of `Cc1cccc(-c2nc(Nc3ccnc4cc(C(F)(F)F)ccc34)c3cccn3n2)n1` [Example 17, N-[2-(6-methylpyridin-2-yl)pyrrolo[2,1-f][1,2,4]triazin-4-yl]-7-(trifluoromethyl)quinolin-4-amine], the IC50 is 1.4 nM. Compared with the last compound, the IC50 is about 3.4-fold lower. Still for that read-out and setting: the figure for `Cc1cccc(-c2nc(Nc3ccnc4ccncc34)c3cccn3n2)n1` [Example 18, N-[2-(6-methylpyridin-2-yl)pyrrolo[2,1-f][1,2,4]triazin-4-yl]-1,6-naphthyridin-4-amine] is 4.4 nM; for `Cc1cccc(-c2nc(Nc3ccnc4cccnc34)c3cccn3n2)n1` [Example 19, N-[2-(6-methylpyridin-2-yl)pyrrolo[2,1-f][1,2,4]triazin-4-yl]-1,5-naphthyridin-4-amine] it is 5.1 nM; for `COc1ccc2c(Nc3nc(-c4cccc(C(F)(F)F)n4)nn4cccc34)ccnc2c1` [Example 20, 7-methoxy-N-{2-[6-(trifluoromethyl)pyridin-2-yl]pyrrolo[2,1-f][1,2,4]triazin-4-yl}quinolin-4-amine] it is 4.2 nM. `COc1ccc2c(Nc3nc(-c4cccc(C(F)F)n4)nn4cccc34)ccnc2c1` [Example 21, N-{2-[6-(difluoromethyl)pyridin-2-yl]pyrrolo[2,1-f][1,2,4]triazin-4-yl}-7-methoxyquinolin-4-amine] gave an IC50 of 1.8 nM.

On to `FC(F)c1cccc(-c2nc(Nc3ccnc4cccnc34)c3cccn3n2)n1` [Example 22, N-{2-[6-(difluoromethyl)pyridin-2-yl]pyrrolo[2,1-f][1,2,4]triazin-4-yl}-1,5-napthyridin-4-amine], for which the IC50 was found to be 5.8 nM.

Consider `Cc1nc(-c2nc(-n3ccc4cnccc43)c3cccn3n2)ccc1F` [Example 23, 3-fluoro-2-methyl-6-(4-{1H-pyrrolo[3,2-c]pyridin-1-yl}pyrrolo[2,1-f][1,2,4]triazin-2-yl)pyridine], for which the half-maximal inhibitory concentration (IC50) is 1.3 nM. Turning to `COc1cccc(-c2nc(-n3ccc4cnccc43)c3c(Cl)ccn3n2)n1` [Example 24, 2-(5-chloro-4-{1H-pyrrolo[3,2-c]pyridin-1-yl}pyrrolo[2,1-f][1,2,4]triazin-2-yl)-6-methoxypyridine], the IC50 came to 10 nM. With `CCc1cccc(-c2nc(-n3ccc4cnccc43)c3cccn3n2)n1` [Example 26, 2-ethyl-6-(4-{1H-pyrrolo[3,2-c]pyridin-1-yl}pyrrolo[2,1-f][1,2,4]triazin-2-yl)pyridine], the IC50 was 1.2 nM. For the compound `c1cc(-c2nc(-n3ccc4cnccc43)c3cccn3n2)nc(C2CC2)c1` [Example 27, 2-cyclopropyl-6-(4-{1H-pyrrolo[3,2-c]pyridin-1-yl}pyrrolo[2,1-f][1,2,4]triazin-2-yl)pyridine], the IC50 amounted to 1.3 nM. Consider `FC(F)(F)c1cccc(-c2nc(-n3ccc4cnccc43)c3cccn3n2)n1` [Example 28, 2-(4-{1H-pyrrolo[3,2-c]pyridin-1-yl}pyrrolo[2,1-f][1,2,4]triazin-2-yl)-6-(trifluoromethyl)pyridine], for which the IC50 was 3.8 nM. `FC(F)c1cccc(-c2nc(-n3ccc4cnccc43)c3cccn3n2)n1` [Example 29, 2-(difluoromethyl)-6-(4-{1H-pyrrolo[3,2-c]pyridin-1-yl}pyrrolo[2,1-f][1,2,4]triazin-2-yl)pyridine] displayed an IC50 of 2.9 nM.

The compound `COc1cccc(-c2nc(-n3ncc4cnccc43)c3cccn3n2)n1` [Example 30, 2-methoxy-6-(4-{1H-pyrazolo[4,3-c]pyridin-1-yl}pyrrolo[2,1-f][1,2,4]triazin-2-yl)pyridine] gave an IC50 of 67 nM. Regarding `Clc1cccc(-c2nc(-n3ccc4cnccc43)c3cccn3n2)n1` [Example 31, 2-chloro-6-(4-{1H-pyrrolo[3,2-c]pyridin-1}-ylpyrrolo[2,1-f][1,2,4]triazin-2-yl)pyridine], the IC50 stood at 4.7 nM. `COc1cccc(-c2nc(-n3ccc4cnccc43)c3cccn3n2)n1` [Example 32, 2-methoxy-6-(4-{1H-pyrrolo[3,2-c]pyridin-1-yl}pyrrolo[2,1-f][1,2,4]triazin-2-yl)pyridine]: the IC50 is 6.2 nM. Same read-out and setting: the figure for `Cc1ccc(-c2nc(-n3ccc4cnccc43)c3cccn3n2)nc1` [Example 34, 5-methyl-2-(4-{1H-pyrrolo[3,2-c]pyridin-1-yl}pyrrolo[2,1-f][1,2,4]triazin-2-yl)pyridine] is 12 nM. Take `CSc1nccc(-c2nc(-n3ccc4cnccc43)c3cccn3n2)n1` [Example 35, 2-(methylsulfanyl)-4-(4-{1H-pyrrolo[3,2-c]pyridin-1-yl}pyrrolo[2,1-f][1,2,4]triazin-2-yl)pyrimidine]: the IC50 worked out at 2.2 nM. In turn, `Cc1cccc(-c2nc(Nc3ccc4[nH]ncc4c3)c3cccn3n2)n1` [Example 36, N-[2-(6-methylpyridin-2-yl)pyrrolo[2,1-f][1,2,4]triazin-4-yl]-1H-indazol-5-amine] yielded an IC50 of 1.5 nM.

Values taken from patent publication US10292985B2, “TGF beta receptor antagonists” (BRISTOL-MYERS SQUIBB COMPANY, priority 2015, dated 2019).
